Test results from patent US6713057B1, “Compositions and methods for modulating serum cholesterol” (The Johns Hopkins University, priority 1999, dated 2004).

What was measured:
SREBP-1 [1] = assay: Indirect immunofluorescence of SREBP-1 subcellular localization; format: cell-based, human; conditions: 30 minutes after initiating treatment; TNF-α 10 ng/ml, sphingomyelinase 100 mUnits, C2-ceramide 10 μM
Procedure: FIGS. 5A-5D show indirect immunofluorescence of SREBP-1. FIGS. 5A-5D are discussed in more detail as follows. SREBP-1 was visualized with rabbit polyclonal antibodies directed towards the N-terminal DNA binding domain which is common to both the precursor and mature forms. Cells were maintained in media supplemented with 1 μg/ml 25-hydroxycholesterol and 15 μg/ml cholesterol for 24 hours before the experiment. Immunofluorescence was performed as described. All magnifications are 40× and all photographs were taken of samples that were fixed 30 minutes after initiating treatment. FIG. 5A) Control cells, FIG. 5B) Cells treated with TNF-α (10 ng/ml), FIG. 5C) Cells treated with sphingomyelinase (100 mUnits), FIG. 5D) Cells treated with C2-ceramide (10 μM).
Cultured HH-25 cells were grown on coverslips and treated as described. After treatment, the cells were washed 3×5 minutes with PBS containing 1 mM MgCl2 and 0.1 mM CaCl2 (solution A). The cells were fixed with 3% paraformaldehyde in solution A for 10 minutes and permeabilized with 0.5% Triton X-100 in solution A for 6 minutes at room temperature. The coverslips were then washed 3×5 minutes with solution A.
Primary antibody (anti-SREBP1) was used at a dilution of […] in PBS and applied for 1 hour with gentle shaking. The cells were washed as above and a FITC conjugated anti-rabbit IgG secondary antibody, was applied for ½ hour according to the instructions of the manufacturer. The coverslips were washed, mounted on microscope slides and were viewed and photographed at the indicated magnification on a Zeiss Axiovert 25 fluorescence microscope.

SREBP-1 [2] = assay: SREBP-1 maturation (Western immunoblot) in hepatocytes transfected with N-SMase plasmids or incubated with r-N-SMase; format: cell-based, human; conditions: C-2 ceramide positive control
Procedure: The present example was conducted to address whether the overexpression of N-SMase employing two separate N-SMase plasmid DNA(PHH-1, representing the entire nucleotide sequence in N-SMase cDNA and PHH-11, representing nucleotide sequence 862-1414) would increase the maturation of SREBP-1 and LDL receptor mRNA expression in a human hepatocyte cell line […]. Cells transfected with mock plasmid cDNA(PSV-SPOT) served as a control and cells incubated with C-2 ceramide previously shown to induce SREBP-1 maturation served as a positive control.
Briefly, human hepatocytes(1×10^4) were seeded in sterile 100 mm^2 in medium containing 10% dialyzed, heat inactivated fetal bovine serum without antibiotics. Twenty four hours later medium was replaced with 9 ml of fresh serum free medium. After incubation for 30 min at 37° C. 5-40 μg of the plasmid DNA in 1 ml of a CaCl2 solution (mixed with equal volume of 0.25-2.5 M CaCl2 solution in HEPES buffer and HEPES buffer pH 6.95). Following gentle mixing incubation of cells was continued for 5-24 hr at 37° C. The transfection reaction was terminated by removing the medium and washing the cells with serum free medium. Next, fresh serum supplemented medium was added and incubation was continued for an additional 24 hr and cells were harvested in appropriate buffer centrifuged and stored frozen until further analysis. […]

[3] = test system: neutral sphingomyelinase (N-SMase); assay: Neutral sphingomyelinase assay after TNF-α stimulation of HH-25 cells; format: cell-based, human; conditions: TNF-α 10 ng/ml
Procedure: FIG. 1 illustrates the effect of TNF-α on neutral sphingomyelinase activity and is explained in more detail as follows: Confluent cultures of HH-25 cells were washed once with PBS and incubated in serum free media for 30 minutes prior to the addition of TNF-α (10 ng/ml). At the indicated time, cells were harvested in PBS, pelleted and frozen. Cells were subsequently lysed as described in materials and methods. N-SMase assays were performed in duplicate as described. Error bars represent ±one standard deviation from the mean.
After stimulation with TNF-α for the indicated time intervals, the cells were washed once with 5 ml PBS and harvested. The pellet was stored frozen at −70° C. and resuspended in 0.5 ml buffer B (100 mM Tris HCl pH 7.4, 0.1% triton X-100, 1 mM EDTA and protease inhibitors). The cell suspension was sonicated 3 times (3 second bursts) using a probe sonicator and centrifuged at 500×g at 4° C. for 5 minutes. The supernatant was used as the enzyme source.
100 μg of protein was assayed for neutral sphingomyelinase activity in a buffer consisting of 5 mM Tris HCl pH 7.4, 0.1% triton X-100, 0.1 mg BSA, 5 mM MgCl2, and […] [^14C] sphingomyelin (12,000 dpm). The assay was incubated at 37° C. for 1.5 hours and terminated with the addition of 1 ml of 10% TCA. […]

LDL receptor mRNA = assay: LDL receptor mRNA, Northern analysis in human hepatocytes; format: cell-based; conditions: TNF-α treatment
Procedure: Briefly, human hepatocytes(1×10^4) were seeded in sterile 100 mm^2 in medium containing 10% dialyzed, heat inactivated fetal bovine serum without antibiotics. Twenty four hours later medium was replaced with 9 ml of fresh serum free medium. After incubation for 30 min at 37° C. 5-40 μg of the plasmid DNA in 1 ml of a CaCl2 solution (mixed with equal volume of 0.25-2.5 M CaCl2 solution in HEPES buffer and HEPES buffer pH 6.95). Following gentle mixing incubation of cells was continued for 5-24 hr at 37° C. The transfection reaction was terminated by removing the medium and washing the cells with serum free medium. Next, fresh serum supplemented medium was added and incubation was continued for an additional 24 hr and cells were harvested in appropriate buffer centrifuged and stored frozen until further analysis. Cell pellets were homogenized and suitable aliquots subjected to Western immunoblot analysis as described below and in Examples 1-7 above. Total RNA was isolated from another batch of cells transfected as above and subjected to Northern analysis employing a ^32P labeled LDL receptor consensus sequence. The autoradiographs were developed and photographed.

Compound | subcellular localization of SREBP-1 (staining pattern) (SREBP-1 [1]) | maturation of SREBP-1 compared to mock cDNA transfected cells (SREBP-1 [2]; PHH1 5,10,20,40 μg plasmid DNA/dish, PHH11 20 μg/dish) | maturation of SREBP-1 in hepatocytes incubated with protein or ceramide (SREBP-1 [2]; r-N-SMase 0.4, 0.8, 2, and 4 μg/ml) | return of N-SMase activity to control levels [3] [h] | maximal increase in neutral sphingomyelinase activity ([3]; 15 minutes after addition) [fold] | LDL receptor mRNA level (LDL receptor mRNA)
CCCCCCCCCCCCC/C=C/[C@@H](O)[C@H](CO)NC(C)=O [C2-ceramide, N-acetylsphingosine, reference compound] | intense nuclear staining and little extra-nuclear staining | markedly increased | markedly increased |  |  | 
TNF-α | intense nuclear staining and little extra-nuclear staining |  |  | ≤ 1 | 2.5 | induces LDL receptor mRNA level
